{"source": "paper PMC8388125", "about": "“Kinetic and Structural Characterization of the Self-Labeling Protein Tags HaloTag7, SNAP-tag, and CLIP-tag” (Biochemistry, 2021)", "key": {"SNAP^C145A [1]": {"target": "T1, SNAP^C145A (Homo sapiens, UniProt P16455, A127T/A154D/C145A/C150Q/C62A/G131K/G132T/G153L/K125A/K32I/L33F/M134L/N157G/Q115S/Q116H/R128A/R135S/S151G/S152D/S159E)", "T1 construct": "made in house; host or cells: E. coli BL21(DE3)-pLysS", "T1 sequence (P16455 1-182 K32I/L33F/C62A/Q115S/Q116H/K125A/A127T/R128A/G131K/G132T/M134L/R135S/C145A/C150Q/S151G/S152D/G153L/A154D/N157G/S159E limits assumed)": "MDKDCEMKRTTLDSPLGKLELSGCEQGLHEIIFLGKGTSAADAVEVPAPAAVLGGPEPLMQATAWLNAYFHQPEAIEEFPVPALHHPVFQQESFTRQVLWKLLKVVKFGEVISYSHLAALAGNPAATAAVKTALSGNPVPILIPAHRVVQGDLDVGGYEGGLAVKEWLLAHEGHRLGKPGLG", "test": "Affinity of SNAP^C145A for nonfluorescent substrates via FP competition assay against CP-TMR", "assay_type": "binding", "protocol": "Binding affinities of SNAP^C145A for BG, CP, BG-Ac, CP-Ac, and BC-Ac were obtained as previously described for HT7 by titrating 5 μM protein and 50 nM CP-TMR against nonfluorescent substrate concentrations ranging from 150 nM to 1.5 mM. Experimental conditions and data analysis were identical despite the fact that 1 mM DTT was added to the buffer and the assay was performed at room temperature."}, "SNAP-tag (SNAP) [2]": {"target": "T2, SNAP-tag (SNAP) (Homo sapiens, UniProt P16455, A127T/A154D/C150Q/C62A/G131K/G132T/G153L/K125A/K32I/L33F/M134L/N157G/Q115S/Q116H/R128A/R135S/S151G/S152D/S159E)", "T2 construct": "made in house; host or cells: E. coli BL21(DE3)-pLysS", "T2 sequence (P16455 1-182 K32I/L33F/C62A/Q115S/Q116H/K125A/A127T/R128A/G131K/G132T/M134L/R135S/C150Q/S151G/S152D/G153L/A154D/N157G/S159E limits assumed)": "T1 sequence (P16455 1-182 K32I/L33F/C62A/Q115S/Q116H/K125A/A127T/R128A/G131K/G132T/M134L/R135S/C145A/C150Q/S151G/S152D/G153L/A154D/N157G/S159E limits assumed) with A145C", "test": "SNAP labeling kinetics via microplate reader (FP over time)", "assay_type": "biochemical", "details": "SNAP, plate reader, kinetic model 1", "protocol": "(§1) Labeling kinetics of SNAP and CLIP substrates were measured by recording FP over time using a microplate reader in a manner analogous to that of HT7 labeling kinetics described above with the following changes. The fluorescent substrate concentration was fixed to 20 nM, and protein concentrations were varied from 15 to 900 nM. Measurements were performed in SNAP-FP buffer.\n(§2) Kinetic data from microplate reader assays were fitted to a simplified kinetic model (eq 13) described by differential eqs 14–16 using DynaFit. The dead time of the measurements and baseline FP value were put in as fixed parameters. Standard deviations (normal distribution verified) and confidence intervals of fitted parameters were estimated with the Monte Carlo method with standard settings (N = 1000, 5% worst fits discarded). In the case of BG, CP, and BC kinetics, the substrate concentration was fitted by DynaFit to rule out quantification errors of the BG, CP, or BC fluorophores. Accurate fitting of the concentration was ensured by including conditions under which protein is limiting and no maximum FP value was reached."}, "CLIP-tag (CLIP)": {"target": "T3, CLIP-tag (CLIP) (Homo sapiens, UniProt P16455, A121V/A127T/A154D/C150Q/C62A/G131N/G132T/G153S/K125A/K32I/L33F/M134L/M60I/N157P/Q115S/Q116H/R128A/R135D/S151G/S152D/S159L/Y114E)", "T3 construct": "made in house; host or cells: E. coli BL21(DE3)-pLysS", "T3 sequence (P16455 1-182 K32I/L33F/M60I/C62A/Y114E/Q115S/Q116H/A121V/K125A/A127T/R128A/G131N/G132T/M134L/R135D/C150Q/S151G/S152D/G153S/A154D/N157P/S159L limits assumed)": "T1 sequence (P16455 1-182 K32I/L33F/C62A/Q115S/Q116H/K125A/A127T/R128A/G131K/G132T/M134L/R135S/C145A/C150Q/S151G/S152D/G153L/A154D/N157G/S159E limits assumed) with M60I, Y114E, A121V, K131N, S135D, A145C, L153S, G157P, E159L", "test": "CLIP labeling kinetics via microplate reader (FP over time)", "assay_type": "biochemical", "details": "CLIP cross-reactivity", "protocol": "as §1, §2"}, "[3]": {"target": "T4, hAGT (human O^6-alkylguanine-DNA alkyltransferase) (Homo sapiens, UniProt P16455)", "T4 construct": "StrepTag-II (N); enterokinase cleavage site (N); His10 (C); made in house; host or cells: E. coli BL21(DE3)-pLysS", "T4 sequence (P16455 1-207)": "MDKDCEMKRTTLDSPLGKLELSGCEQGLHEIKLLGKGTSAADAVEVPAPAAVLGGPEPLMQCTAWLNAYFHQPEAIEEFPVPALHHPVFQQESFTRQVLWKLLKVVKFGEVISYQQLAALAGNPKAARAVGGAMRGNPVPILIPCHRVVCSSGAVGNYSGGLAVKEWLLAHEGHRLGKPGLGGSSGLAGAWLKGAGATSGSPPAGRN", "test": "hAGT labeling kinetics via microplate reader (FP over time)", "assay_type": "biochemical", "protocol": "as §1, §2"}, "SNAP-tag (SNAP) [4]": {"target": "T2, SNAP-tag (SNAP)", "test": "SNAP labeling kinetics via stopped flow (fluorescence anisotropy)", "assay_type": "biochemical", "details": "model 2", "protocol": "Labeling kinetics of SNAP with BG-TMR were measured via stopped-flow in a manner analogous to that for HT7 kinetics described above; however, the final substrate concentration was fixed at 2 μM, and the protein concentration was varied from 1.875 to 50 μM. The activity buffer was supplemented with 1 mM DTT.\nKinetic stopped-flow data were preprocessed using a custom R script.[36],[37] Recorded pretrigger time points were removed, and time points were adjusted to start at time zero. Values from replicates were averaged. The anisotropy of the free dye was calculated by averaging anisotropy values of the baseline measurements. Preprocessed data were fitted to a kinetic model (eqs 5 and 6) described by differential eqs 7–10 using the DynaFit software.[38] The anisotropy of the free dye and the mixing delay of the stopped-flow machine were set as fixed offset and delay parameters in DynaFit. It was assumed that the protein substrate complex and the reacted product are contributing equally to the anisotropy signal. […] Standard deviations (normal distribution verified) and confidence intervals of fitted parameters were estimated with the Monte Carlo method[39] with standard settings (N = 1000, 5% worst fits discarded). In the case of SNAP kinetics with BG-TMR, the substrate concentration was fitted by DynaFit to rule out quantification errors of the BG-quenched fluorophore. Accurate fitting of the concentration was ensured by including conditions in which protein is limiting and no maximum FP value was reached."}, "SNAP^C145A [5]": {"target": "T1, SNAP^C145A", "test": "Affinity of SNAP^C145A for BG and CP fluorescent substrates by fluorescence polarization", "assay_type": "binding", "protocol": "Binding affinities of SNAP^C145A and SNAPf^C145A for BG-Alexa488, CP-Alexa488, BG-fluorescein, CP-fluorescein, BG-MAP555, BG-JF549, BG-TMR(6), BG-TMR(5), CP-TMR, BG-CPY(6), BG-CPY(5), CP-CPY, BG-SiR, CP-SiR, BG-JF646, BG-Atto565, BG-Atto590, BG-sulfo-Cy3, BG-Cy3, BG-sulfo-Cy5, and BG-Cy5 were determined by fluorescence polarization in a manner analogous to that for HT7 affinities for CA substrates described above with the following changes. Fluorescent substrates were titrated at a final concentration of 50 nM against protein concentrations ranging from 0 to 250 μM at room temperature using 0.1 g/L BSA and 1 mM DTT (SNAP-FP buffer). The FP value of each dye fully reacted with the native SNAP/SNAPf was used to improve fitting of the upper plateau of the curves by adding an extra data point at a protein concentration of 0.005 M."}}, "note": "Changes are numbered by the printed parent chain."}
{"smiles": "CC(=O)NCc1ccc(COc2nccc(N)n2)cc1", "note": "[BC-Ac]", "values": [{"measurement": "times lower affinity than for BG-Ac", "setting": "SNAP^C145A [1]", "value": 5, "unit": "times"}, {"measurement": "Kd", "setting": "SNAP^C145A [1]; FP competition against CP-TMR, room temperature", "value": 416, "unit": "µM"}]}
{"smiles": "CN(C)c1ccc2c(-c3cc(C(=O)NCc4ccc(COc5nc(N)nc6[nH]cnc56)cc4)ccc3C(=O)[O-])c3ccc(=[N+](C)C)cc-3oc2c1", "note": "[BG-TMR]", "values": [{"measurement": "kapp (value ± standard deviation)", "setting": "SNAP-tag (SNAP) [2]", "value": "(4.29 ± 0.01) × 10^5 M^–1 s^–1"}, {"measurement": "times slower reaction of CLIP than with BC-TMR", "setting": "CLIP-tag (CLIP)", "value": 100, "unit": "times"}, {"measurement": "times slower labeling of hAGT than of SNAP", "setting": "[3]; hAGT vs SNAP", "value": 130, "unit": "times"}, {"measurement": "kapp (value ± standard deviation)", "setting": "[3]; hAGT, plate reader, model 1", "value": "(3.38 ± 0.01) × 10^3 M^–1 s^–1"}, {"measurement": "k2 (± S.D.)", "setting": "SNAP-tag (SNAP) [4]", "value": "1.24 (± 0.02) s-1"}, {"measurement": "k-1 (± S.D.)", "setting": "SNAP-tag (SNAP) [4]", "value": "1.02 (± 0.03) s-1"}, {"measurement": "fold lower Kd^C145A compared to Kd calculated from stopped-flow experiments using active SNAP", "setting": "SNAP^C145A [5]; SNAP^C145A vs active SNAP", "value": 3, "unit": "fold"}, {"measurement": "Kd", "setting": "SNAP^C145A [5]; SNAP^C145A, fluorescence polarization, room temperature", "value": 680, "unit": "nM"}]}
